Columns and labels:
Assay type in all cases: cell-based
[1] = test system: large bowel cancer cells SW480 (K-RasG12V); test: Cell growth inhibition, adherent cells SW480; settings: Homo sapiens, 72 hours, read-out: SW480 (KRasG12V) % inhibition at 10 μM
Protocol: The cell growth inhibitory activity of the compound of the present invention on human culture cells having active-type mutation in Ras was evaluated by the below-mentioned method using suspension cancer cells {acute lymphoblastic leukemia cells CCRF-CEM (K-RasG12D), promyelocytic leukemia cells HL60 (N-RasQ61L), acute lymphoblastic leukemia cells MOLT4 (N-RasG12C), and small cell lung cancer cells SHP77 (K-RasG12V)} and adherent cancer cells {large bowel cancer cells SW480 (K-RasG12V) and large bowel cancer cell SW620 (K-RasG12V)}.
(Case of adherent cells) The cells suspended in a medium containing 10% FBS (1 to 2×10^4 cells/well) were seeded on a 96-well plate, and were then cultured at 37° C. in the presence of […]. Thereafter, the medium was exchanged with a medium containing […], to which each compound solution (final DMSO concentration: […]) had been added, and the cells were then cultured at 37° C. in the presence of […] for 72 hours.
(§1) Thereafter, the number of viable cells was measured using Cell Counting Reagent (Nacalai Tesque) in accordance with the manufacturer's instructions. Inhibition by the test compound was determined according to the following equation: […]

[2] = test system: acute lymphoblastic leukemia cells CCRF-CEM (K-RasG12D); test: Cell growth inhibition, suspension cells CCRF-CEM; settings: Homo sapiens, 1 μM, 72 hours, read-out: CCRF-CEM (KRasG12D) % inhibition at 1 μM
In short: (§2)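 Suspension cells, 2 to 4×10^4 per well, cultured with compound in medium with 0.5% FBS (1% DMSO final) for 72 h at 37° C, 5% CO2. Viable cells counted with Cell Counting Reagent; inhibition calculated relative to controls.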

[3] = test system: promyelocytic leukemia cells HL60 (N-RasQ61L); test: Cell growth inhibition, suspension cells HL60; settings: Homo sapiens, HL-60; 1 μM, 72 hours; read-out: HL-60 (NRasQ61L) % inhibition at 1 μM
In short: as §2

[4] = test system: Vemurafenib-resistant malignant melanoma cells HT 144R (BRafV600E); test: Cell growth inhibition, drug-resistant malignant melanoma HT144R; settings: Homo sapiens, in the presence of 1 μM PLX (Vemurafenib), 72 hours
Protocol: The human malignant melanoma cell lines A375 and HT 144, each having BRafV600E mutation, were cultured in a medium containing 10% FBS at 37° C. in the presence of 5% CO2. At the time point in which the cells became confluent, 1 μM Vemurafenib, a BRaf inhibitor, was added to the medium, and the cells were then cultured in the presence of Vemurafenib for 1 month or more (during which the medium was exchanged every 1 week), so as to acquire Vemurafenib-resistant malignant melanoma cells A375R and HT 144R. The resulting resistant cells were suspended in a medium containing 10% FBS, and then seeded on a 96-well plate to an amount of 1 to 2×10^4 cells/well. The cells were cultured at 37° C. in the presence of 5% CO2 overnight. Thereafter, the medium was exchanged with a medium containing 0.5% FBS, to which each compound solution (final DMSO concentration: 1%) and 1 μM Vemurafenib had been added, and the cells were then cultured at 37° C. in the presence of 5% CO2 for 72 hours.
as §1
Hereafter, Inhibition (%) by 3.3 μM compound is shown.

`CC(=O)N1/C(=C\c2nc3cc(C(=O)N4CCOCC4)ccc3s2)C(=O)c2ccccc21` [Example 47, (Z)-1-acetyl-2-((5-(morpholine-4-carbonyl)benzo [d]thiazol-2-yl)-methylene)-indolin-3-one] showed an inhibition at 10 µM [1] of 51%, an inhibition at 1 µM [2] of 74% and an inhibition at 1 µM [3] of 89%. For the same compound, the inhibition at 3.3 µM [4] was 92%.

— patent publication US20250091994A1, “RAS/RAF BINDING INHIBITOR COMPOUND” (NATIONAL UNIVERSITY CORPORATION KOBE UNIVERSITY, priority 2021, published 2025)
